Results as given in publication PMC9186362, “Design and biological evaluation of substituted 5,7-dihydro-6H-indolo[2,3-c]quinolin-6-one as novel selective Haspin inhibitors” (Journal of Enzyme Inhibition and Medicinal Chemistry, 2022).

What was measured:
[1] = tested on: RPE1 cell line; assay: Cell viability MTS assay, dose-response; type: cell-based; settings: Homo sapiens, RPE-1; 48 h, MTS assay in triplicate, doses up to 50 µM
Experimental: (§1) HCT116 cells were cultured in McCoy’s medium. SH-SY5Y, MDA-MB231 and U-2 OS cells were cultured in Dulbecco's modified Eagle's medium (DMEM) and hTERT RPE-1 cells in DMEM:F12 medium. All media were supplemented with 10% foetal calf serum and cells were cultured at 37 °C in a 5% CO2 humidified atmosphere.
(§2) Cell viability was then assessed using the CellTiter96 AQueous cell proliferation assay from Promega according to the manufacturer’s instructions. Each experiment was done in triplicate and EC50 were determined from the dose-response curves according to the signal given by the control (0.1% DMSO) set at 100% viability using Prism GraphPad software.

[2] = tested on: U-2 OS cell line; assay: Cell viability MTS assay, dose-response; type: cell-based; settings: Homo sapiens, U2OS; 48 h, MTS assay in triplicate, doses up to 50 µM
Experimental: as §1, §2

[3] = molecular target: MmCLK1 (Mus musculus, UniProt P22518); assay: ADP-Glo kinase assay; type: biochemical, Mus musculus (Mm); settings: for remaining activity at 1 µM: mean n = 2, % of maximum activity of DMSO control, read-out: % Residual activity at 1 μM CLK1; for Selectivity index CLK1/Haspin: IC50 CLK1/IC50 Haspin; for IC50: dose-response curve, each point in duplicate, read-out: Kinase inhibition (IC50) CLK1
MmCLK1, sequence (P22518 whole entry): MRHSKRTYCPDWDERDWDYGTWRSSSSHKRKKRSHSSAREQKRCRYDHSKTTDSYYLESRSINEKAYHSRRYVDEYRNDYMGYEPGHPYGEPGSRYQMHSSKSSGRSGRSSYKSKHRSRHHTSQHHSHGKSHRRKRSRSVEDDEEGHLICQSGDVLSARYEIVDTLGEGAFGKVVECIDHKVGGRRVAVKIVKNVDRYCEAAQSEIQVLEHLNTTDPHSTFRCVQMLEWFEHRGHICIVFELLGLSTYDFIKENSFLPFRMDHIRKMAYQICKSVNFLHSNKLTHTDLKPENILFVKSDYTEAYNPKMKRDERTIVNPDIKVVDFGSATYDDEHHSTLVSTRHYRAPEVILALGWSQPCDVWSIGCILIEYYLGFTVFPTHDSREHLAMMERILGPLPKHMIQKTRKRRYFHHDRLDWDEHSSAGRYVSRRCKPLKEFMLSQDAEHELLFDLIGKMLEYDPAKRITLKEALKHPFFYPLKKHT
Experimental: (§3) Kinase activities were determined using the ADP-Glo methodology (ADP-Glo Kinase Assay; Promega) according to the assay described by Nguyen et al.[32] except for MmCLK1. The later was assayed in the following buffer: 10 mM MgCl2, 1 mM EGTA, 1 mM DTT, 25 mM Tris-HCl pH 7.5, 50 µg/ml heparin, 0.15 mg/ml BSA, with 0.027 µg/µl of the following peptide: GRSRSRSRSRSR as substrate.

[4] = molecular target: HsCdk9/Cyc E (Homo sapiens, UniProt P50750); assay: ADP-Glo kinase assay; type: biochemical, Homo sapiens (Hs); settings: mean n = 2, % of maximum activity of DMSO control, read-out: % Residual activity at 1 μM CDK9
HsCdk9/Cyc E, sequence (P50750 whole entry): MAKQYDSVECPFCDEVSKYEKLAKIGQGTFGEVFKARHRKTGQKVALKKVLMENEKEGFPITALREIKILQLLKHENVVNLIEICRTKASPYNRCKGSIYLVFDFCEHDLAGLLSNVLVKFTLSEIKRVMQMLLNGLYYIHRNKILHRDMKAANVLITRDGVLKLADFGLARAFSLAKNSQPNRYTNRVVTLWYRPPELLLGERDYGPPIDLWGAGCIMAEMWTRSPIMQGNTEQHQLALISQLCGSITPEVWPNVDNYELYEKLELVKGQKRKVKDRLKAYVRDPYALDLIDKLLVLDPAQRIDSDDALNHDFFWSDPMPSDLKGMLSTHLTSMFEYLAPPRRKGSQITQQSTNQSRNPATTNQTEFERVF
HsCdk9/Cyc E, sequence (O60563 whole entry partner): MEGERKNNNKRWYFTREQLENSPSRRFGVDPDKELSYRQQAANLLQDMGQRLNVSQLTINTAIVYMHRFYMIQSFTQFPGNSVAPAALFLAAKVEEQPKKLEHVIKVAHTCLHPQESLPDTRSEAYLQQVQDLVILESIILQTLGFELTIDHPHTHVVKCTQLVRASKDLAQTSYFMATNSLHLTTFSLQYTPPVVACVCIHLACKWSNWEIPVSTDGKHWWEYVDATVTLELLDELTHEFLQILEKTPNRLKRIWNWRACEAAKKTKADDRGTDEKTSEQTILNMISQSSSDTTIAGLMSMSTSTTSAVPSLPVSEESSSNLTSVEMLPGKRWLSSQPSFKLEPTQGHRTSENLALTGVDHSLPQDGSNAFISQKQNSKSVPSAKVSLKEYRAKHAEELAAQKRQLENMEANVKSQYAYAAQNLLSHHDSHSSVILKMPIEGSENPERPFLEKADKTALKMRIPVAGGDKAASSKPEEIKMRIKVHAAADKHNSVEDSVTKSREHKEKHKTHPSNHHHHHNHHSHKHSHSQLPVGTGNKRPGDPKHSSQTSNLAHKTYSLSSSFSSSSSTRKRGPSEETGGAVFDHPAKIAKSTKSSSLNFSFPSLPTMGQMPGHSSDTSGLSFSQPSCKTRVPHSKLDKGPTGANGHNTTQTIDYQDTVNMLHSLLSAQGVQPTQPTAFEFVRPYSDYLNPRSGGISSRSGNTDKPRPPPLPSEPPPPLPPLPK
Experimental: as §3

[5] = molecular target: T1, HsHaspin (Homo sapiens, UniProt Q8TF76); assay: ADP-Glo kinase assay; type: biochemical, Homo sapiens (Hs); settings: for remaining activity at 1 µM: mean n = 2, % of maximum activity of DMSO control, read-out: % Residual activity at 1 μM Haspin; for IC50: dose-response curve, each point in duplicate, read-out: Kinase inhibition (IC50) Haspin
T1 sequence (Q8TF76 1-798): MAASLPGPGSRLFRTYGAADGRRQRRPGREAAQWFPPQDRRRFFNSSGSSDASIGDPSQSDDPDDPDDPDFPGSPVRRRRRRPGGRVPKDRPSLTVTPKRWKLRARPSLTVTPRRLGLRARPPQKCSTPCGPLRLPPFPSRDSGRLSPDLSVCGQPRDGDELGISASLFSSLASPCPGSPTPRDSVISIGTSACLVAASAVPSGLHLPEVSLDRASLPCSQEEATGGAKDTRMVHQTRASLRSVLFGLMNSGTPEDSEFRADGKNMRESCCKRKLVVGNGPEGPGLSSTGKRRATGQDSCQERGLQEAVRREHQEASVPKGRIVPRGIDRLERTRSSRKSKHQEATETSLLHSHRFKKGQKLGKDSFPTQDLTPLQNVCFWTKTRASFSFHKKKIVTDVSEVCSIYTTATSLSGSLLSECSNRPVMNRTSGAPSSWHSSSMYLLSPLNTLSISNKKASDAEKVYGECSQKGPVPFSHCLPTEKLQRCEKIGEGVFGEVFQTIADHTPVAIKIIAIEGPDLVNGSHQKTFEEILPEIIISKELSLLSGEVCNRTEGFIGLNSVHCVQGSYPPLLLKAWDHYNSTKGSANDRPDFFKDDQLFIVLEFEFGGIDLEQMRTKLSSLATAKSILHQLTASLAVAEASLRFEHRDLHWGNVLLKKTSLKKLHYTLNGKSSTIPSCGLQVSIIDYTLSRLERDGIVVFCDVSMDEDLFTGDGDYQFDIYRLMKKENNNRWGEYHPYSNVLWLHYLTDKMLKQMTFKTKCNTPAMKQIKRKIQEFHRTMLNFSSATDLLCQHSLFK
Experimental: as §3

[6] = molecular target: HsCdk2/Cyc A (Homo sapiens, UniProt P24941); assay: ADP-Glo kinase assay; type: biochemical, Homo sapiens (Hs); settings: mean n = 2, % of maximum activity of DMSO control, read-out: % Residual activity at 1 μM CDK2
Experimental: as §3

[7] = molecular target: HsCdk5/p25 (Homo sapiens, UniProt Q00535); assay: ADP-Glo kinase assay; type: biochemical, Homo sapiens (Hs); settings: mean n = 2, % of maximum activity of DMSO control, read-out: % Residual activity at 1 μM CDK5
HsCdk5/p25, sequence (Q00535 whole entry): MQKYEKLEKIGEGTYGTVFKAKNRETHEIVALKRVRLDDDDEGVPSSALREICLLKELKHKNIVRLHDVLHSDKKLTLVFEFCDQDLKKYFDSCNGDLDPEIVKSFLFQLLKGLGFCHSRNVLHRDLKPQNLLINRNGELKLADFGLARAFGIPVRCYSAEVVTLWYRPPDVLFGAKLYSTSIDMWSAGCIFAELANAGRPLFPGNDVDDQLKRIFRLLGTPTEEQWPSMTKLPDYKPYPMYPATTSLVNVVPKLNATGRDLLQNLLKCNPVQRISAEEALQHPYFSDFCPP
HsCdk5/p25, sequence (Q15078 99-307 partner limits assumed): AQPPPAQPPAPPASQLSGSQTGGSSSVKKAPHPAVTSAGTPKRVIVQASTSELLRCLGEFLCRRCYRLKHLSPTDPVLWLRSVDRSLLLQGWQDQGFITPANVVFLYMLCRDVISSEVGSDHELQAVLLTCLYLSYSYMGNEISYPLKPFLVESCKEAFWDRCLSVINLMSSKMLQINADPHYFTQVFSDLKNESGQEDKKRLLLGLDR
Experimental: as §3

[8] = molecular target: HsGSK3β (Homo sapiens, UniProt P49841); assay: ADP-Glo kinase assay; type: biochemical, Homo sapiens (Hs); settings: mean n = 2, % of maximum activity of DMSO control, read-out: % Residual activity at 1 μM GSK3β
HsGSK3β, sequence (P49841 whole entry): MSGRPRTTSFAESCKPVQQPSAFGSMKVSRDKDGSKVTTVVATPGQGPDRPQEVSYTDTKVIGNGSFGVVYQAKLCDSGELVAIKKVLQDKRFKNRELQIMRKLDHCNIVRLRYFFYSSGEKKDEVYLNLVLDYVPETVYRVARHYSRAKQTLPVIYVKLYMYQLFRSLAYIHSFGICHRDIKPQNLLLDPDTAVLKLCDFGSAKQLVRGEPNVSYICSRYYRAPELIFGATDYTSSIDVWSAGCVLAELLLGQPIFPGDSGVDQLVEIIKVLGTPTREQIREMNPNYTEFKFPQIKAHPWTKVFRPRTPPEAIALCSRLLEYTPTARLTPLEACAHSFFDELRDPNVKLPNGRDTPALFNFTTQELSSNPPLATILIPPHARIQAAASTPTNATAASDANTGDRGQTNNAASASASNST
Experimental: as §3

[9] = molecular target: HsPIM1 (Homo sapiens, UniProt P11309); assay: ADP-Glo kinase assay; type: biochemical, Homo sapiens (Hs); settings: mean n = 2, % of maximum activity of DMSO control, read-out: % Residual activity at 1 μM PIM1
HsPIM1, sequence (P11309 whole entry): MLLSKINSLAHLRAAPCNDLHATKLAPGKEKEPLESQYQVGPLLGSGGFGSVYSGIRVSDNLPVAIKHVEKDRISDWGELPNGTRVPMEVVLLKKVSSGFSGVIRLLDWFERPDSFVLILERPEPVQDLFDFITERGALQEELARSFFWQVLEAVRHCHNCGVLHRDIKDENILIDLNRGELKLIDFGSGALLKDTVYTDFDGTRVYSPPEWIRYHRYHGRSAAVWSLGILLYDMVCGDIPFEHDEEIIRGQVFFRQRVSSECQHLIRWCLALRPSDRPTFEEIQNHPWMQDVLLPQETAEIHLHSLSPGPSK
Experimental: as §3

[10] = molecular target: RnDYRK1A (Rattus norvegicus, UniProt Q63470); assay: ADP-Glo kinase assay; type: biochemical, Rattus norvegicus (Rn); settings: for Selectivity index DYRK/Haspin: IC50 DYRK1A/IC50 Haspin; for IC50: dose-response curve, each point in duplicate, read-out: Kinase inhibition (IC50) DYRK1A; for remaining activity: mean n = 2, % of maximum activity of DMSO control, read-out: % Residual activity at 1 μM DYRK1A
Experimental: as §3

[11] = tested on: U-2 OS, HCT116, MDA-MB231, SH-SY5Y and RPE-1 cell lines; assay: Cell viability primary screen at 25 μM; type: cell-based, human; settings: 48 h; for Effect on cell viability, primary screen: all tested cell lines
Experimental: as §1, §2

Row | SMILES | EC50 [1] [µM] | EC50 [2] [µM] | remaining activity at 1 µM [3] [%] | Selectivity index CLK1/Haspin [3] | IC50 [3] [µM] | remaining activity at 1 µM [4] [%] | remaining activity at 1 µM [5] [%] | IC50 [5] [µM] | remaining activity at 1 µM [6] [%] | remaining activity at 1 µM [7] [%] | remaining activity at 1 µM [8] [%] | remaining activity at 1 µM [9] [%] | Selectivity index DYRK/Haspin [10] | IC50 [10] [µM] | remaining activity [10] [%] | Effect on cell viability, primary screen [11] | melting point [°C] | Reduction of cell viability compared to the DMSO control [11] [%]
1 | COc1ccc2[nH]c(=O)c3[nH]c4ccc(OC)cc4c3c2c1 [Compound 51, 2,10-Dimethoxy-5,7-dihydro-6H-indolo[2,3-c]quinolin-6-one] | > 25 | 12.6 | 5 | 3 | 0.01 | 33 | 1 | 0.004 | 62 | 70 | 29 | 36 | 10 | 0.041 | 14 | little to no effect | 190 to 192 | 
2 | COc1ccc2[nH]c3c(=O)[nH]c4cc(O)ccc4c3c2c1 [Compound 54, 3-Hydroxy-10-methoxy-5,7-dihydro-6H-indolo[2,3-c]quinolin-6-one] | > 25 | > 25 | 11 | 21 | 0.082 | 18 | 0 | 0.004 | 35 | 59 | 48 | 9 | 24 | 0.097 | 2 | little to no effect | 227 to 230 | 
3 | COc1ccc2c(c1)[nH]c(=O)c1[nH]c3ccc(OC)cc3c12 [Compound 50, 3,10-Dimethoxy-5,7-dihydro-6H-indolo[2,3-c]quinolin-6-one] | 20.8 | 4.3 | 10 | 13 | 0.088 | 51 | 3 | 0.007 | 77 | 81 | 44 | 19 | 28 | 0.196 | 5 |  | 192 to 195 | ≥ 75
4 | O=c1[nH]c2ccc(O)cc2c2c1[nH]c1ccc(F)cc12 [Compound 61, 10-Fluoro-2-Hydroxy-5,7-dihydro-6H-indolo [2,3-c]quinolin-6-one] | 19.1 | 8.7 | 2 | 16 | 0.078 | 41 | 0 | 0.005 | 57 | 91 | 71 | 38 | 21 | 0.104 | 9 |  | 240 to 243 | ≥ 75
5 | COc1ccc2[nH]c3c(=O)[nH]c4ccccc4c3c2c1 [Compound 49, 10-Methoxy-5,7-dihydro-6H-indolo[2,3-c]quinolin-6-one] | > 25 | > 25 | 5 |  | 0.013 | 40 | 2 | 0.001 | 73 | 77 | 39 | 41 |  | 0.015 | 7 | little to no effect | 232 to 235 | 
6 | COc1ccc2[nH]c(=O)c3[nH]c4ccccc4c3c2c1 [Compound 46, 2-Methoxy-5,7-dihydro-6H-indolo[2,3-c]quinolin-6-one] | > 25 | > 25 | 13 | 7 | 0.051 | 62 | 6 | 0.007 | 80 | 78 | 86 | 32 | 10 | 0.068 | 18 | little to no effect | > 250 | 
7 | COc1ccc2[nH]c3c(=O)[nH]c4ccc(N)cc4c3c2c1 [Compound 56, 2-Amino-10-methoxy-5,7-dihydro-6H-indolo[2,3-c]quinolin-6-one] | > 25 | > 25 | 3 | 15 | 0.213 | 37 | 2 | 0.014 | 72 | 79 | 39 | 65 | 16 | 0.226 | 7 | little to no effect | > 250 | 
8 | O=c1[nH]c2ccc(O)cc2c2c1[nH]c1ccccc12 [Compound 48, 2-Hydroxy-5,7-dihydro-6H-indolo[2,3-c]quinolin-6-one] | 7.3 | 7 | 4 | 3 | 0.017 | 49 | 1 | 0.006 | 84 | 87 | 100 | 63 | 3 | 0.019 | 12 |  | 235 to 238 | ≥ 75
